# Assay results reported in patent publication US12048734B2, “Bioactive peptides and methods of use thereof” (OP-T LLC, priority 2020, dated 2024).
# Legend:
# [1] = Preliminary toxicity study, single IV bolus, beagle dogs; type: in vivo
# Procedure: (§1) In a preliminary toxicity study rats and dogs were given a single dose of OPT 101 as an IV bolus. […] When OPT101 was administered to beagle dogs at 50 or 100 mg/kg by bolus IV injection OPT101 was not tolerated due to adverse clinical signs, including prostration, slight salivation, decreased activities, purple or red skin colored in the abdomen ventral, lateral ears or conjunctiva(s), lips, or periorbital, soft stool, medium food-like, red/brown, or small and frothy vomitus, increased respiratory rate, and labored breathing. Clinical pathology effects included increases in leukocyte count, erythrocyte and platelet counts.
# [2] = 8-week GLP repeat-dose toxicity study, 30-minute IV infusion, rats; type: in vivo
# Procedure: Due to these adverse effects in the rats and dogs after a bolus IV injection, the administration of OPT101 was changed to IV infusion over 30 minutes for the definitive GLP toxicity studies. Rats and dogs were treated once a week for 8-weeks, by 30-minute IV infusions. The PK of OPT101 was also determined following the first and last dose in each study. […] The no observable adverse effect level (NOAEL) for OPT101 was considered to be the […] level. […] Due to the incidence and severity of the infusion reactions, the clinical signs were considered adverse at 100 and 400 mg/kg, but because of the lower incidence and severity at 10 mg/kg, the effects at the 10 mg/kg were considered non-adverse.
# bacterial mutation = assay: Standard reverse bacterial mutation assay (Ames assay)
# From the text: OPT101 was negative in the standard reverse bacterial mutation assay (Ames assay).
# human platelets = assay: Human platelet aggregation in vitro by light transmission aggregometry; type: cell-based
# From the text: It has been shown that using an anti-CD154 monoclonal therapeutic approach to interfere with the CD40-CD154 interaction there was efficacy in animal models, but in the clinical trial of one of the monoclonal antibodies there was binding to platelets resulting in emboli. Therefore, the clinical trials were halted (Kawai et al 2000, abstract). To determine if OPT101 has similar effects as the monoclonal antibody, an in vitro study was done with human platelets to determine if OPT101 would affect platelet aggregation, as measured by light transmission aggregometry. Platelet aggregation induced with adenosine diphosphate or collagen were not affected when treated with OPT101 at 0.1, 0.3, 3 or 30 μg/mL. […] Therefore, OPT101 had no impact on human platelet aggregation in vitro.
# [3] = Preliminary toxicity study, single IV bolus, rats; type: in vivo; conditions: 50 or 100 mg/kg bolus IV injection
# Procedure: as §1
# [4] = 8-week GLP repeat-dose toxicity study, 30-minute IV infusion, dogs; type: in vivo
# Procedure: Rats and dogs were treated once a week for 8-weeks, by 30-minute IV infusions. The PK of OPT101 was also determined following the first and last dose in each study.
# [5] = Single bolus IV dose histamine / immune mediator study in rats
# [6] = Single dose dog study focused on cardiovascular effects, 30-minute IV infusion; type: in vivo, dogs
# Procedure: Since some of the clinical signs were consistent with a drop in blood pressure, a single dose dog study was done, giving doses of 0.3, 1 or 100 mg/kg by a 30-minute IV infusion, and focused on cardiovascular effects. […] The 100 mg/kg group had much more severe clinical observations compared to 1 mg/kg. These effects were associated with decreases in blood pressure and heart rate for the dogs treated with 100 mg/kg. The blood pressure and heart rate returned to normal by 1 hour after end of infusion.
# [7] = Character of infusion reactions in the animal studies; type: in vivo
# From the text: There was clear difference between the infusion reactions seen in the rats and dogs, and IgE-mediated anaphylaxis or other antigen-dependent hypersensitivity. IgE/antigen-dependent degranulation of mast cells is associated with a sustained release of larger and more heterogeneously shaped granule structures, whereas peptide-activated mast cells rapidly secrete small and relatively spherical granule structures (Gaudenzio 2016). […] In addition, the infusion reactions were also elicited by a scrambled version of OPT101 (same amino acids but in a different sequence), showing the reaction was not OPT101-dependent.
# [8] = NDA 022150; cited from earlier work
# conventional CD4 T cells = assay: Intracellular IL-10 in conventional CD4 T cells ex-vivo at end of EAE experiment after KGYY6 treatment; design: species or system mice; conditions: draining lymph nodes (dLN); after 33 days; vs untreated animals; p=0.0145
# From the text: FIG. 10 provides two graphs which show how KGYY-6 treatment alters IL-10 production by conventional CD4 T cells.
# Intracellular cytokine expression profiles were examined in conventional CD4 T cells immediately ex-vivo at the end of the EAE experiment, after 33 days.
# Th40 cells = assay: Intracellular TGF in Th40 cells from ApoE−/− mice treated with KGYY6; conditions: ApoE−/− mice with cardiovascular disease treated with KGYY6 vs not treated; ex-vivo flow cytometry
# Procedure: Th40 cells were purified from ApoE−/−mice with cardiovascular disease as well as from ApoE−/−mice that were treated with KGYY6. Immediately ex-vivo, the cells were stained for CD3, CD4, and CD40 and intracellular TGF and analyzed by flow cytometry. Cells were gated on CD3 then CD4 and CD40 for Th40 cells then levels of TGF were assessed.
# [9] = Glucose tolerance and insulin sensitivity after KGYY6; type: in vivo, ApoE −/−mice
# [10] = test system: CD3+CD4+CD40+(Th40) splenic cells; assay: Overnight culture of Th40 splenic cells with KGYY6, inflammatory cytokines; type: cell-based, ApoE−/− mice; conditions: cultured overnight with varying concentrations of KGYY6; vs untreated cells
# Procedure: CD3+CD4+CD40+(Th40) splenic cells were purified from ApoE−/− with cardiovascular disease. The cells were cultured overnight in the absence/presence of varying concentrations of KGYY6 peptide.
# [11] = 50 and 100 mg/kg IV injection, vs pretest values
# [12] = 12.5 mg/kg bolus IV, 1-hour post-treatment
compound,measurement,setting,value
"CSCC[C@H](NC(=O)[C@@H](NC(=O)[C@H](Cc1ccc(O)cc1)NC(=O)[C@H](Cc1ccc(O)cc1)NC(=O)CNC(=O)[C@H](CCCCN)NC(=O)[C@H](CCCCN)NC(=O)[C@H](C)NC(=O)[C@H](Cc1c[nH]c2ccccc12)NC(=O)[C@H](CCC(N)=O)NC(=O)[C@H](CC(C)C)NC(=O)[C@@H](N)C(C)C)[C@@H](C)O)C(=O)N[C@@H](CCCCN)C(=O)N[C@@H](CO)C(=O)N[C@@H](CC(N)=O)C(=O)O [OPT101, VLQWAKKGYYTMKSN]",assessment of clinical chemistry effects,[1]; 100 mg/kg,adverse
same,"alanine aminotransferase, aspartate aminotransferase, alkaline phosphatase, γ-glutamyltransferase, urea, creatinine, calcium, phosphorus, total bilirubin, creatine kinase",[1]; [11],notable increases
same,potassium,[1]; [11],decrease
same,serum C5b-9 complement levels,[1]; 50 or 100 mg/kg,no increases
same,decrease of fibrinogen (down to),[1]; 50 or 100 mg/kg bolus IV,32%
same,increase of prothrombin time,[1]; 50 or 100 mg/kg bolus IV,288%
same,"leukocyte count, erythrocyte and platelet counts",[1]; 50 or 100 mg/kg bolus IV,increases
same,tolerability,"[1]; 50 or 100 mg/kg bolus IV injection, single dose",not tolerated
same,histopathology evaluation of liver and kidney,[1]; bolus IV,no liver or kidney lesions
same,tolerability,"[2]; 10, 100 or 200 mg/kg/dose once a week for 8 weeks, 30-minute IV infusion",well tolerated and did not result in any adverse effects
same,NOAEL,"[2]; rat, in vivo, rats, once weekly for 8 weeks, 30-minute IV infusion, read-out: no observable adverse effect level (NOAEL)",200 mg/kg
same,thromboemboli,"[2]; rats, 8-week toxicology study",no evidence of thromboemboli
same,toxicity other than infusion reaction,"[2]; rats, up to highest dose of 200 mg/kg, once weekly for 8 weeks, 200 mg/kg",no other adverse effects
same,reverse bacterial mutation (Ames assay),bacterial mutation,negative
same,spontaneous platelet aggregation,human platelets; OPT101 at 30 μg/mL,no spontaneous platelet aggregation
same,Platelet aggregation induced with adenosine diphosphate or collagen,"human platelets; OPT101 at 0.1, 0.3, 3 or 30 μg/mL",not affected
same,mortality,[3],mortality of two rats
same,tolerability,[3]; single dose,did not tolerate the treatment
same,assessment of infusion reaction clinical signs,[4]; 10 mg/kg,non-adverse
same,plasma drug levels versus dose,"[4]; 8-week study, PK after first and last dose",increased with increasing dose
same,"infusion reactions, incidence","[4]; 10, 100, or 400 mg/kg/dose",in all treated animals
same,tolerability,"[4]; 10, 100, or 400 mg/kg/dose once a week for 8 weeks, 30-minute IV infusion",well tolerated
same,assessment of infusion reaction clinical signs,[4]; 100 and 400 mg/kg,adverse
same,NOAEL,"[4]; dog, in vivo, dogs, infusion reaction, once weekly for 8 weeks, 30-minute IV infusion, read-out: no observable adverse effect level (NOAEL)",10 mg/kg
same,thromboemboli,"[4]; dogs, 8-week toxicology study",no evidence of thromboemboli
same,toxicity other than infusion reaction,"[4]; dogs, up to highest dose of 400 mg/kg, once weekly for 8 weeks, 400 mg/kg",no other adverse effects
same,drug accumulation,[4]; over the 8-week study,no marked drug accumulation
same,serum C3 levels (as measured by conversion to human SC5b-9),[5]; [12],no decreases
same,"serum IFN-γ, TNF-α, IL-10, IL-4, IL-5, IL-6, IL-10, or IL-13 levels",[5]; [12],no changes
same,serum histamine levels,"[5]; 12.5 mg/kg bolus IV, 10-minutes post-treatment",increased significantly
same,clinical observation,[5]; single bolus IV dose 12.5 mg/kg,consistent with a histamine reaction
same,clinical observations or physiological changes,[6]; 0.3 mg/kg,no clinical observations or physiological changes
same,blood pressure and heart rate,[6]; 100 mg/kg,decreases
same,time for blood pressure and heart rate to return to normal after end of infusion,[6]; 100 mg/kg,≤ 1 h
same,serum levels of histamine,"[6]; 100 mg/kg, 5 and 30 minutes after start of infusion",significantly elevated
same,"body weight, food consumption, body temperature, respiratory rate and coagulation","[6]; 0.3, 1 or 100 mg/kg, 30-minute IV infusion, single dose","no OPT101-related body weight, food consumption, body temperature, respiratory rate and coagulation changes"
same,histamine related clinical observations,"[6]; 1 and 100 mg/kg, much more severe at 100 mg/kg","salivation, vomitus, incontinence, discolored skin, swelling and rash"
same,no observable effect level (NOEL),"[6]; single dose, 30-minute IV infusion",0.3 mg/kg
same,complement activation,[7],no evidence of complement activation
same,duration of clinical signs and release of histamine,[7],very transient
NC(N)=NCCC[C@@H](N)C(=O)N[C@@H](CCCN=C(N)N)C(=O)N1CCC[C@H]1C(=O)N1C[C@H](O)C[C@H]1C(=O)NCC(=O)N[C@@H](Cc1cccs1)C(=O)N[C@@H](CO)C(=O)N1Cc2ccccc2C[C@@H]1C(=O)N1[C@H](C(=O)N[C@@H](CCCN=C(N)N)C(=O)O)C[C@@H]2CCCC[C@@H]21 [icatibant],infusion reaction,[8],causes a reaction due to histamine release that is quickly reversed after end of infusion
AKKGYY [KGYY6],intracellular IL-10 in conventional CD4 T cells,conventional CD4 T cells,increase in intracellular IL-10
same,"production of TGF (intracellular, Th40 cells)",Th40 cells,decrease production of TGF
same,insulin sensitivity,[9]; p<0.005,statistically significant improvement
same,glucose tolerance,[9]; p<0.05,statistically significant improvement
same,inflammatory cytokine IFNγ,[10],varying degrees of reduction
same,inflammatory cytokine IL-2,[10],varying degrees of reduction
same,inflammatory cytokine IL-17A,[10],varying degrees of reduction
"YKNVKQMAYWLTGKS [scrambled version of OPT101, reference compound]",infusion reactions,[7],also elicited
